Earlier results, collected in patent US20090155357A1, “Alcohol Resistant Pharmaceutical Formulations” (priority 2005, published 2009).

Tests used:
[1] = solubility in water
[2] = solubility in alcohol

Molecule | Water [1] | Alcohol [2]
CCCCCCCCCCCCCCCC(=O)OCC(O)CO (stereo not shown) [Glyceryl Palmitate] | I | I
Glyceryl Behanate | I | I
CCCCCCCCCCCCCCCCCC(=O)OCC(O)CO (stereo not shown) [Glyceryl Monostearate] | I | I
Dibasic/Tribasic calcium phosphate dihydrate | I | I
[O]=[Mg] [Magnesium Oxide] | I | I
